Data on 13 compounds can be found in US9206167B2, “Piperazine-substituted benzothiophenes for treatment of mental disorders” (Otsuka Pharmaceutical Co., Ltd., priority 2005, dated 2015).

Usually Ki stands for a dissociation constant, usually derived from enzyme kinetics or from competition with a known ligand.

One assay addresses Dopamine D2 receptor (Rattus norvegicus (Rat), UniProt P61169). Put plainly: Dopamine D2 receptor binding assay ([3H]-raclopride, rat corpus striatum membrane). As to conditions: Ki from IC50 by Cheng-Prussoff formula. As for the experimental part:
Pharmacological Test 1 1) Dopamine D2 Receptor Binding Assay
Wistar male rats were decapitated, the brain was retrieved immediately and corpus striatum was taken out. It was homogenized in 50 mM tris(hydroxymethyl)aminomethane (Tris)-hydrochloric acid buffer (pH 7.4) of a volume 50 times of the weight of the tissue using a homogenizer with a high-speed rotating blade, and centrifuged at 4° C., 48,000×g for 10 minutes. The obtained precipitate was suspended again in the above-described buffer of a volume 50 times of the weight of the tissue and after incubated at 37° C. for 10 minutes, centrifuged in the above-described condition. The obtained precipitate was suspended in 50 mM (Tris)-hydrochloric acid buffer (containing 120 mM NaCl, 5 mM KCl, 2 mM CaCl2, 1 mM MgCl2, pH 7.4) of a volume 25 times of the weight of the tissue and preserved by freezing at −85° C. till it was used for binding assay as a membrane specimen.
The binding assay was performed using 40 μl of the membrane specimen, 20 μl of [^3H]-raclopride (final concentration 1 to 2 nM), 20 μl of a test drug and 50 mM Tris-hydrochloric acid buffer (containing 120 mM NaCl, 5 mM KCl, 2 mM CaCl2, 1 mM MgCl2, pH 7.4) so that the total amount was 200 μl (final dimethylsulfoxide concentration 1%). The reaction was performed at room temperature for 1 hour and terminated by conducting suction filtration with a cell harvester on a glass fiber filter plate. The filter plate made of glass fiber was washed with 50 mM Tris-hydrochloric acid buffer (pH 7.4), and after dried, a microplate liquid scintillation cocktail was added and the radioactivity was measured with a microplate scintillation counter. Radioactivity in the presence of 10 μM (+)-butaclamol hydrochloride was assumed as nonspecific binding.
(§1) IC50 value was calculated from concentration-dependent reaction using a non-linear analysis program. Ki value was calculated from IC50 value using Cheng-Prussoff formula.

Assay [1] concerns the target Serotonin 5-HT2A receptor (Rattus norvegicus (Rat), UniProt P14842). Nature of the assay: Serotonin 5-HT2A receptor binding assay ([3H]-Ketanserin, rat frontal cortex membrane). As to conditions: Ki from IC50 by Cheng-Prussoff formula. The method, then:
2) Serotonin 5-HT2A Receptor Binding Assay
The assay was performed according to the method by Leysen J E et al. (Leysen J E, Niemegeers C J E, Van Nueten J M and Laduron P M. [3H] Ketanserin (R 41 468), a selective 3H-ligand for serotonin 2 receptor binding sites. Mol. Pharmacol., 1982, 21: 301-314).
Wistar male rats were decapitated, the brain was retrieved immediately and frontal cortex was taken out. It was homogenized in 0.25 M sucrose of a volume 10 times of the weight of the tissue using a Teflon glass homogenizer, and centrifuged at 4° C., 1,000×g for 10 minutes. The obtained supernatant was transferred to another centrifuge tube and suspended in 0.25 M sucrose of a volume 5 times of the weight of the tissue and the precipitate was centrifuged in the above-described condition. The obtained supernatant was combined with the supernatant obtained above and adjusted to a volume 40 times of the weight of the tissue with 50 mM Tris-hydrochloric acid buffer (pH 7.4), and centrifuged at 4° C., 35,000×g for 10 minutes. The obtained precipitate was suspended again in the above-described buffer of a volume 40 times of the weight of the tissue and centrifuged in the above-described condition. The obtained precipitate was suspended in the above-described buffer of a volume 20 times of the weight of the tissue and preserved by freezing at −85° C. till it was used for binding assay as a membrane specimen.
The binding assay was performed using 40 μl of the membrane specimen, 20 μl of [^3H]-Ketanserin (final concentration 1 to 3 nM), 20 μl of a test drug and 50 mM Tris-hydrochloric acid buffer (pH 7.4) so that the total amount was 200 μl (final dimethylsulfoxide concentration 1%). The reaction was performed at 37° C. for 20 minutes and terminated by conducting suction filtration with a cell harvester on a glass fiber filter plate.
The filter plate made of glass fiber was washed with 50 mM Tris-hydrochloric acid buffer (pH 7.4), and after dried, a microplate liquid scintillation cocktail was added and the radioactivity was measured with a microplate scintillation counter. Radioactivity in the presence of 10 μM spiperone was assumed as nonspecific binding.
as §1

The next assay concerns the target Serotonin (5-HT) uptake (Rattus norvegicus (Rat), UniProt P31652). Nature of the assay: Serotonin (5-HT) uptake inhibitory activity by rat brain synaptosome. The settings on record: test compound 300 nM, rat frontal cortex synaptosome; read-out: Serotonin uptake inhibitory ratio (%) (300 nM). The format is biochemical. As for the experimental part:
Measurement of Serotonin (5-HT) Uptake Inhibitory Activity of a Test Compound by Rat Brain Synaptosome
Wistar male rats were decapitated, the brain was retrieved and frontal cortex was dissected out, and it was homogenized in 0.32 M sucrose solution of a weight 20 times of the weight of the tissue using a Potter type homogenizer. The homogenate was centrifuged at 4° C., 1,000×g for 10 minutes, the obtained supernatant was further centrifuged at 4° C., 20,000×g for 20 minutes, and the pellet was suspended in an incubation buffer (20 mM Hepes buffer (pH 7.4) containing 10 mM glucose, 145 mM sodium chloride, 4.5 mM potassium Chloride, 1.2 mM magnesium chloride, 1.5 mM calcium chloride), which was used as crude synaptosome fraction.
5-HT uptake reaction was performed in a volume of 200 μl using a 96-well round bottom plate and pargyline (final concentration 10 μM) and sodium ascorbate (final concentration 0.2 mg/ml) were contained in the incubation buffer upon reaction and used.
Incubation buffer (total counting), non-labeled 5-HT (final concentration 10 μM, non-specific counting) and the diluted test compound (final concentration 300 nM) were added to each well. One-tenth quantity of the final volume of the synaptosome fraction was added and after preincubated at 37° C. for 10 minutes, tritium labeled 5-HT solution (final concentration 8 nM) was added and uptake reaction was started at 37° C. The uptake time was 10 minutes and the reaction was terminated by vacuum filtration through a 96-well fiber glass filter paper plate, and after the filter paper was washed with cold normal saline, it was dried enough and Microscint0 (Perkin-Elmer) was added to the filter and remaining radioactivity on the filter was measured.

Assay [2] addresses Human recombinant dopamine D2 receptor (Homo sapiens (Human), UniProt P14416). As to conditions: forskolin-stimulated D2 expressing CHO/DHFR(-) cells, control drug. As for the experimental part:
Partial agonistic activity on dopamine D2 receptor was evaluated by quantitatively determining cyclic AMP production inhibitory effect of a test compound in dopamine D2 receptor expression cells in which adenosine 3′,5′-cyclic monophosphate (cyclic AMP) production was induced by forskolin stimulation.
Human recombinant dopamine D2 receptor expressing Chinese hamster ovary/DHFR(−) cells were cultured in a culture medium (Iscove's Modified Dulbecco's Medium (IMDM culture medium), 10% fetal bovine serum, 50 I.U./ml penicillin, 50 μg/ml streptomycin, 200 μg/ml geneticin, 0.1 mM sodium hypoxanthine, 16 μM thymidine) at 37° C. and 5% carbon dioxide condition. Cells were seeded at 10^4 cells/well on a 96-well microtiter plate coated with poly-L-lysine and grown under the same condition for 2 days. Each well was washed with 100 μl of a culture medium (IMDM culture medium, 0.1 mM sodium hypoxanthine, 16 μM thymidine).

Chain of Serotonin (5-HT) uptake (P31652 whole entry): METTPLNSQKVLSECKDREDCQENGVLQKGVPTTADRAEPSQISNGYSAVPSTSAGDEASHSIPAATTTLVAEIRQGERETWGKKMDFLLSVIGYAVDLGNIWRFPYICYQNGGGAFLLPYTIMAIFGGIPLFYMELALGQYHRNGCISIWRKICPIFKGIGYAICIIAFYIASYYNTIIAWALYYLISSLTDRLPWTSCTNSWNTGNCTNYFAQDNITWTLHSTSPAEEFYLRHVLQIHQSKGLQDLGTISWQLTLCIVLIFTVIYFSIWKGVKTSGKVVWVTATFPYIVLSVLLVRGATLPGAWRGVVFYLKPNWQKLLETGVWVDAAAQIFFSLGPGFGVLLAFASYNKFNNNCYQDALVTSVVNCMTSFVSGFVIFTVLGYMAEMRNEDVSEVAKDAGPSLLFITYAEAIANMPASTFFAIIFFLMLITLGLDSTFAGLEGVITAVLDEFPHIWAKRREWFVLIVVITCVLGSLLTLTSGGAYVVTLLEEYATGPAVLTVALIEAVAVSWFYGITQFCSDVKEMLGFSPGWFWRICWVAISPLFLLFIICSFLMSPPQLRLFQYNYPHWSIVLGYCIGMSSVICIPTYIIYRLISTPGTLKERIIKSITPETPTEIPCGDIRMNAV
Chain of Dopamine D2 receptor (P61169 whole entry): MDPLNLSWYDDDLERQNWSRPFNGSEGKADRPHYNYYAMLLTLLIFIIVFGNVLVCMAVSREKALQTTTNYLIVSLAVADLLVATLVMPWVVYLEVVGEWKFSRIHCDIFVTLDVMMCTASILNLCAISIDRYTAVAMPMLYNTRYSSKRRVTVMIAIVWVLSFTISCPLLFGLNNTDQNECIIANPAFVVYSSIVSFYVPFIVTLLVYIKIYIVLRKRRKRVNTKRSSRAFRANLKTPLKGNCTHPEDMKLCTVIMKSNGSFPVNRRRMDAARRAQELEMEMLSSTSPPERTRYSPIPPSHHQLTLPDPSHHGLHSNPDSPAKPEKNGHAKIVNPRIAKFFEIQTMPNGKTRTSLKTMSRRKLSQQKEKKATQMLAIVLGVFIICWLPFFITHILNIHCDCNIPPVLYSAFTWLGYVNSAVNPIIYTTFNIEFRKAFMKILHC
Chain of Serotonin 5-HT2A receptor (P14842 whole entry): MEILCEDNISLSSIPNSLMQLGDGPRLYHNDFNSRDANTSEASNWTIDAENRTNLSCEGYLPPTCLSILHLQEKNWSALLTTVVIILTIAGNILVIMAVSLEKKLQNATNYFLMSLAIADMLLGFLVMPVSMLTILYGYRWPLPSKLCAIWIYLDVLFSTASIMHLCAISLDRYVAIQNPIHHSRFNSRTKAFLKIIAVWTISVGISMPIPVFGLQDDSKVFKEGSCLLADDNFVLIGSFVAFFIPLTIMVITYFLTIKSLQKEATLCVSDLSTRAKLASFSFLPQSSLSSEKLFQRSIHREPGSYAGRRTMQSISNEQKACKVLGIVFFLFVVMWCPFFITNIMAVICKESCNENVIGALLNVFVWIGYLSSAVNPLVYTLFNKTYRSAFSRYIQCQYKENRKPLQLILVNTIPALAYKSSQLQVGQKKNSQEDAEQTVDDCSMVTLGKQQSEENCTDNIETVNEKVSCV
Chain of Human recombinant dopamine D2 receptor (P14416 whole entry): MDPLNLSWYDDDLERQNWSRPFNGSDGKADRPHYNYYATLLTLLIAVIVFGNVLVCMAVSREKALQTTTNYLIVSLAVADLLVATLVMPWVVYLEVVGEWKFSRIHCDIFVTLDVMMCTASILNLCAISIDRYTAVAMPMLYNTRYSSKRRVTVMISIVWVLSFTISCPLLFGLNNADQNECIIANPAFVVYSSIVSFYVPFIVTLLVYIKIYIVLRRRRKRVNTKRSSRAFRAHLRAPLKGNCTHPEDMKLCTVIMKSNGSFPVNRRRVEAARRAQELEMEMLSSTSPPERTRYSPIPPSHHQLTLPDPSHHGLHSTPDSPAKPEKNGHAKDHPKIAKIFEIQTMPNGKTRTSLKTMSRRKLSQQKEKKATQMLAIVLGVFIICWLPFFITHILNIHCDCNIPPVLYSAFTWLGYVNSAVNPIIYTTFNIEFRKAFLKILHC

`Cc1cc(=O)[nH]c2cc(OCCCCN3CCN(c4cccc5sccc45)CC3)ccc12` [Example 4, 7-[4-(4-benzo[b]thiophen-4-yl-piperazin-1-yl)butoxy]-4-methyl-1H-quinolin-2-one]: the Ki worked out at 0.5 nM on Dopamine D2 receptor and 4.9 nM in assay [1]. Moreover, at Serotonin (5-HT) uptake, the inhibition at 0.3 µM was found to be 91%.

For the compound `Cc1cc2ccc(OCCCN3CCN(c4cccc5sccc45)CC3)cc2[nH]c1=O` [Example 5, 7-[3-(4-benzo[b]thiophen-4-yl-piperazin-1-yl)propoxy]-3-methyl-1H-quinolin-2-one], the Ki at Dopamine D2 receptor was 0.6 nM; in assay [1], 6.4 nM. Further, the inhibition at 0.3 µM on Serotonin (5-HT) uptake worked out at 89.1%.

Turning to `O=c1ccc2ccc(OCCCN3CCN(c4cccc5sccc45)CC3)cc2[nH]1` [Example 7, 7-[3-(4-benzo[b]thiophen-4-yl-piperazin-1-yl)propoxy]-1H-quinolin-2-one], the Ki at Dopamine D2 receptor turned out to be 0.5 nM; in assay [1], 4 nM. Also, the inhibition at 0.3 µM on Serotonin (5-HT) uptake worked out at 91%.

As to `O=C1CCc2ccc(OCCCN3CCN(c4cccc5sccc45)CC3)cc2N1` [Example 10, 7-[3-(4-benzo[b]thiophen-4-yl-piperazin-1-yl)propoxy]-3,4-dihydro-1H-quinolin-2-one], the Ki at Dopamine D2 receptor was found to be 0.4 nM; in assay [1], 3 nM. In addition, the inhibition at 0.3 µM at Serotonin (5-HT) uptake amounted to 92.6%.

In the case of `O=C1CCc2ccc(OC/C=C/CN3CCN(c4cccc5sccc45)CC3)cc2N1` [Example 15, 7-[4-(4-benzo[b]thiophen-4-yl-piperazin-1-yl)-(E)-2-butenyloxy]-3,4-dihydro-1H-quinolin-2-one], the Ki on Dopamine D2 receptor worked out at 0.2 nM; in assay [1] it was 3.3 nM. Moreover, the inhibition at 0.3 µM at Serotonin (5-HT) uptake worked out at 87.2%.

`CC1CC(=O)Nc2cc(OCCCCN3CCN(c4cccc5sccc45)CC3)ccc21` (stereo not shown) [Example 16, 7-[4-(4-benzo[b]thiophen-4-yl-piperazin-1-yl)butoxy]-4-methyl-3,4-dihydro-1H-quinolin-2-one]: the Ki at Dopamine D2 receptor amounted to 0.7 nM; in assay [1], 7 nM. Moreover, the inhibition at 0.3 µM on Serotonin (5-HT) uptake worked out at 86.7%.

Turning to `O=C1CCc2cc(OCCCCN3CCN(c4cccc5sccc45)CC3)ccc2N1` [Example 20, 6-[4-(4-benzo[b]thiophen-4-yl-piperazin-1-yl)butoxy]-3,4-dihydro-1H-quinolin-2-one], the inhibition constant (Ki) on Dopamine D2 receptor is 1.5 nM; in assay [1], 3.3 nM. Also, the inhibition at 0.3 µM on Serotonin (5-HT) uptake is 92.8%.

For `O=C1c2ccccc2CCN1CCCCCN1CCN(c2cccc3sccc23)CC1` [Example 24, 2-[5-(4-benzo[b]thiophen-4-yl-piperazin-1-yl)pentyl]-3,4-dihydro-2H-isoquinolin-1-one], the Ki on Dopamine D2 receptor stood at 5 nM; in assay [1] it was 2.3 nM. The inhibition at 0.3 µM at Serotonin (5-HT) uptake is 97.5%.

As for `CN1CCc2cc(OCCCN3CCN(c4cccc5sccc45)CC3)ccc2C1=O` [Example 26, 6-[3-(4-benzo[b]thiophen-4-yl-piperazin-1-yl)propoxy]-2-methyl-3,4-dihydro-2H-isoquinolin-1-one], the Ki on Dopamine D2 receptor was 3.5 nM; in assay [1], 4.4 nM. Besides, the inhibition at 0.3 µM at Serotonin (5-HT) uptake is 92%.

Consider `CCN1CCc2cc(OCCCN3CCN(c4cccc5sccc45)CC3)ccc2C1=O` [Example 27, 6-[3-(4-benzo[b]thiophen-4-yl-piperazin-1-yl)propoxy]-2-ethyl-3,4-dihydro-2H-isoquinolin-1-one], for which the values for the Ki (on Dopamine D2 receptor; in assay [1]) were 4.9 nM and 4.1 nM, respectively. The inhibition at 0.3 µM on Serotonin (5-HT) uptake was 94%.

`O=c1c2ccccc2ccn1CCCCN1CCN(c2cccc3sccc23)CC1` [Example 34, 2-[4-(4-benzo[b]thiophen-4-yl-piperazin-1-yl)butyl]-2H-isoquinolin-1-one]: the Ki on Dopamine D2 receptor came to 1.2 nM; in assay [1], 1.5 nM. Further, on Serotonin (5-HT) uptake, the inhibition at 0.3 µM was 94.2%.

Regarding `O=c1[nH]ccc2cc(OCCCN3CCN(c4cccc5sccc45)CC3)ccc12` [Example 40, 6-[3-(4-benzo[b]thiophen-4-yl-piperazin-1-yl)propoxy]-2H-isoquinolin-1-one], the values for the Ki (at Dopamine D2 receptor; in assay [1]) were 4.8 nM and 5.1 nM, respectively. For the same compound, the inhibition at 0.3 µM on Serotonin (5-HT) uptake is 91.6%.

In the case of `NCCc1ccc(O)c(O)c1` [dopamine], the “quantity of cyclic AMP as the maximum activity (well without test compound = 100%)” value in assay [2] was “about 10%”.
